# Reference: paper PMC11589101, “Profiling the endocrine-disrupting properties of triazines, triazoles, and short-chain PFAS” (Toxicological Sciences, 2024)
# Tests used:
# [1] = biological target: T1, human transthyretin (TTR) (Homo sapiens, UniProt P02766); test: FITC-T4 TTR-binding assay, initial (original) method; conditions: for IC10 competing with FITC-T4 for binding to TTR / IC50: initial method, 110 nM FITC-T4, 30 nM TTR; for IC50: read-out: IC50 competing with FITC-T4 for binding to TTR
# Method: (§1) All incubations were performed at room temperature.
# (§2) Fluorescence enhancement was determined for each well by subtracting its relative fluorescence units (RFU) before TTR addition from its RFUs after TTR addition. The resulting values were normalized to percentages of the vehicle control. A concentration–response curve was fitted through the data using the same model as in the reporter gene assays.
# After 15 min of incubation, fluorescence was measured and fluorescence enhancement was calculated by subtracting RFU without TTR from RFU with TTR. Further data analysis was similar to the screening assays.
# [2] = biological target: T1, human transthyretin (TTR); test: FITC-T4 TTR-binding assay, screening method; conditions: screening method; read-out: IC50 TTR-binding assay, Screening Method
# Method: as §1
# In the screening tests, 48 μl of Tris-HCl buffer (pH 8.0) was added to each well of black low-binding 96-well plates. Two microliters of each test compound dissolved in their respective solvent was added to each well and the plate was shaken at 600 rpm for 5 min. […] Fluorescence was measured again to check for possible autofluorescence or quenching by the test compound.
# as §2
# [3] = tested on: steroidogenesis in H295R cells; format: cell-based, human; conditions: 48 h
# Method: All experiments were performed using cells in passages 5 to 10. First, the highest noncytotoxic concentration (<10% decrease in viability) was determined for each compound with MTT assays. Next, the levels of 13 steroid hormones were determined in the medium after exposure of the H295R cells to the highest noncytotoxic concentration using LC-MS/MS. These concentrations were tested in triplicate (n = 3) in 3 independent experiments (N = 3), and all 9 samples were measured in LC-MS/MS. […] These dilution series were tested in 3 independent experiments (N = 3), with triplicate exposures in each of these experiments (n = 3). Supernatants of the triplicate exposures per experiment were pooled after the 48 h of exposure and the 3 pooled samples were measured with LC-MS/MS. This was done to keep the number of LC-MS/MS measurements manageable.
# The exposure medium was prepared by diluting stock solutions 1,000× in the cell culture medium to obtain a final concentration of 0.1% of the solvent. Exposure was started by replacing cell culture medium with the exposure medium. […] On a separate quality control plate, cells were exposed to 10 μM forskolin (Sigma-Aldrich) and 1 μM prochloraz (Sigma-Aldrich) to serve as positive control for increased and decreased steroid hormone secretion, respectively. Exposure was started by replacing the culture medium in the cell culture plates with the exposure medium.
# After 48 h of exposure, the supernatant medium from each well was transferred to the wells of a clean 48-well plate, and that plate was stored at −80 °C for later steroid measurement. MTT assays were performed by adding 500 μl of 0.5 mg/ml MTT (3-(4,5-dimethylthiazol-2-yl)-2,5-diphenyltetrazolium bromide; Sigma-Aldrich) solution in medium to each well of the 24-well cell culture plate and incubating for 1 h at 37 °C with 5% CO2. After incubation, the MTT solution was discarded and 500 μl of DMSO was added to each well to lyse the cells and dissolve the formazan crystals. Plates were shaken at 700 rpm for 10 min and absorbance was measured at 560 nm wavelength.
# Hormones were concentrated from supernatants by solid phase extraction using Bond Elut Plexa cartridges, 30 mg sorbent, 1.8 ml (Agilent Technologies, Santa Clara, CA, United States). The cartridges were conditioned with 1 ml of 0.5% formic acid in methanol, and subsequent addition of 1 ml of 0.5% formic acid in water. A mix of 100 μl of H295R medium sample in 1 ml of 2% formic acid in water and 50 μl of isotopically labeled internal standards mix (Table S1) was loaded on the cartridges. These were then washed with 1 ml of water followed by 1 ml of water–methanol mixture (70:30, v/v). Cartridges were dried by vacuum and the hormones were eluted with 700 μl of methanol into 96-well-deep well polypropylene plates. Eluates were evaporated to dryness during approximately 2 h in a refrigerated CentriVap vacuum concentrator and reconstituted in 150 μl of water–methanol mixture (1:1, v/v). Additionally, a serial 12-point dilution series of a mix of native steroid hormones was prepared to fit a calibration curve in order to quantify steroid concentrations.
# The steroid hormones were separated prior to MS measurements on a Kinetex C18 LC Column (2.6 μm, 100 × 2.1 mm; Phenomenex, CA, United States) coupled to an Exion LC system (SCIEX, Framingham, MA, United States). The mobile phase consisted of 0.2 mM NH4F in water and pure methanol and was delivered at a flow rate of 0.6 ml/min in a gradient elution mode. The injection volume was 10 μl.
# The LC-MS/MS raw data were processed using AB Sciex OS Analyst version 1.6.2 (SCIEX, Framingham, MA, United States) to calculate fold changes by dividing the measured hormone concentrations by the hormone concentrations in the vehicle controls. The fold changes were used to fit a concentration–response curve in GraphPad Prism using the same model as in the reporter gene assays, and the ECIR1.5 was estimated for each compound.
SMILES,% FITCT4 bound to TTR ([1]; 0.1 uM),% FITCT4 bound to TTR ([1]; 0.3 uM),% FITCT4 bound to TTR ([1]; 1 uM),% FITCT4 bound to TTR ([1]; 3 uM),% FITCT4 bound to TTR ([1]; 10 uM),% FITCT4 bound to TTR ([1]; 30 uM),% FITCT4 bound to TTR ([1]; 100 uM),IC10 competing with FITC-T4 for binding to TTR [1],IC50 [1],IC50 [2],increased levels of progesterone and 17α-OH-progesterone compared with vehicle-treated controls ([3]; H295R),effect on steroid hormone levels compared with vehicle-treated controls ([3]; highest noncytotoxic exposure concentration)
"Cc1cccc2[nH]nnc12 [4-methylbenzotriazole, 4-Methylbenzotriazole]",96.4305%,93.5915%,89.9761%,82.6096%,67.1205%,47.648%,21.2593%,1.3 µM,23.3 µM,26.3 µM,,
CC(C)(C)[C@@H](O)[C@@H](Cc1ccc(Cl)cc1)n1cncn1 (racemic) [Paclobutrazol],,,,,,,,,,,up to 3.5 fold,"increased levels of progesterone and decreased levels of androgens, estrogens, and corticosteroids"
"O=C(O)C(F)(F)C(F)(F)C(F)(F)C(F)(F)C(F)(F)C(F)(F)C(F)(F)F [PFOA, Perfluorooactanoic acid]",82.1607%,45.526%,17.6477%,6.188%,2.364%,0.3274%,0.2557%,0.053 µM,0.28 µM,0.28 µM,,
"NC(Cc1cc(I)c(Oc2cc(I)c(O)c(I)c2)c(I)c1)C(=O)O (stereo not shown) [T4, thyroxine, reference compound]",,,,,,,,0.0024 µM,,,,
"O=C(O)C(F)(F)C(F)(F)C(F)(F)C(F)(F)C(F)(F)F [PFHxA, Perfluorohexanoic acid]",90.7115%,81.4177%,77.1918%,44.5805%,21.8899%,12.6684%,2.971%,0.20 µM,2.6 µM,2.5 µM,,
"O=S(=O)(O)C(F)(F)C(F)(F)C(F)(F)C(F)(F)F [PFBS, Perfluorobutane sulfonic acid]",97.3072%,93.7406%,89.6282%,73.6529%,44.4619%,21.5802%,11.5263%,0.82 µM,8.3 µM,8.2 µM,,
